Data on 13 compounds can be found in patent US11584737B2, “Heterocyclic compound” (TAKEDA PHARMACEUTICAL COMPANY LIMITED, priority 2018, dated 2023).

In one assay the test system is A2780 cells. As to the kind of experiment: In vitro proliferation suppression test (CellTiter-Glo). The assay is classed as cell-based, human. The settings on record: Homo sapiens, 72 h, A2780 cell proliferation inhibitory rate at 1 μM test compound, three days. Put shortly:
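A2780 cells in RPMI1640 with 10% FBS were exposed to 1 μM compound for three days at 37° C, 5% CO2. CellTiter-Glo luminescence read; inhibition (%) calculated relative to wells without compound.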
On the technique in general: ATP-based viability assays read luminescence as a measure of living cells.

Another assay deals with CDK12/CycK enzyme (Homo sapiens, UniProt Q9NYV4). The assay is described as follows: Measurement of CDK12/CycK inhibitory activity (ULight-4E-BP1 peptide phosphorylation, LANCE). The assay is classed as biochemical. The following applies: inhibitory rate against CDK12/CycK at 1 μM test compound, ATP 10 μM or 500 μM. On the procedure:
Experimental Example 2: Measurement of CDK12/CycK Inhibitory Activity
A test compound dissolved in DMSO was added to a reaction solution (50 mM HEPES (pH 7.5), 10 mM MgCl2, 1 mM DTT, 0.01% Tween 20, 0.01% BSA) containing CDK12/CycK enzyme and ULight-labeled eIF4E-binding protein 1 (4E-BP1) (Thr37/Thr46) peptide (PerkinElmer), and the mixture was reacted at room temperature for 60 min. […] was added to give an ATP solution with a final concentration of 10 μM or 500 μM to start the enzyme reaction, and the mixture was reacted at room temperature for 60 min. A LANCE Detection buffer (PerkinElmer) containing europium-labeled anti-phosphorylation 4E-BP1 (Thr37/Thr46) antibody (PerkinElmer) and EDTA (final concentration 10 mM) was added to discontinue the reaction. After standing for 60 min, time decomposition fluorescence value (excitation 320 nm, emission 615 nm, 665 nm) was measured by Envision (PerkinElmer). The inhibitory rate (%) of the test compound against CDK12/CyclinK was calculated by the following formula. Inhibitory rate (%)=(1−(count of test compound−blank)÷(control−blank))×100
The count of the CDK12 enzyme reaction mixture under compound non-addition conditions is indicated as control, and the count under compound non-addition and CDK12/CycK enzyme non-addition conditions is indicated as blank.
The results measured by the above-mentioned method (inhibitory rate (%) of the signal value at 1 μM test compound relative to control is shown below.
For orientation: Time-resolved FRET reads energy transfer from a long-lived donor to a nearby acceptor.

Assay [1] relates to A2780 intracellular CTD pSer2. The assay is described as follows: CTD pSer2 measurement using human ovarian cancer cell A2780 and In-Cell Western method. The assay is classed as cell-based. The following applies: inhibitory rate against A2780 intracellular CTD pSer2 at 1 μM test compound, 4 hr. On the procedure:
Experimental Example 3: CTD pSer2 Measurement Using Human Ovarian Cancer Cell A2780 and In-Cell Western Method
A2780 cells (ATCC) were seeded in a 96 well plate at 1.8×10^4 cells/well, and the cells were cultured overnight in a cell culture medium RPMI1640 (FUJIFILM Wako Pure Chemical Corporation) containing 10% FBS (fetal bovine serum) and 1% penicillin/streptomycin. A test compound dissolved in a cell medium was added, and the mixture was stood for 4 hr in a CO2 incubator (37° C.). The cells were fixed with ALTFiX (Falma) for 30 min, and washed 3 times with a washing buffer (20 mM Tris-HCl (pH 7.5), 500 mM NaCl, 0.1% Tween20). 0.1% Triton-X-100 diluted with PBS(−) was added and the mixture was incubated at room temperature for 15 min. Thereafter, a blocking buffer (LI-COR) was added, and the mixture was incubated at room temperature for 1 hr. An anti-CTD pS2 antibody (Abcam) suspended in an antibody diluent (blocking buffer: PBS(−)-diluted 0.1% Tween20=1:1) was added, and the mixture was incubated at room temperature for 1 hr. The mixture was […] with a washing buffer, IRDye800CW-labeled anti-goat antibody (LI-COR) was added, and the mixture was incubated at room temperature for 1 hr. The mixture was washed 3 times with a washing buffer, and the fluorescence wavelength at 800 nm was measured by Aerius (LI-COR).
The inhibitory rate (%) of the test compound against A2780 intracellular CTD pSer2 was calculated by the following formula. Inhibitory rate (%)=(1−(count of test compound−blank)÷(control−blank))×100
The count of the A2780 cell under compound non-addition conditions is indicated as control, and the count under compound non-addition and primary antibody non-addition conditions is indicated as blank.
The results measured by the above-mentioned method (inhibitory rate of the signal value at 1 μM test compound relative to control) are shown below.

The target in another assay is CDK12/CycK complex (Homo sapiens, UniProt Q9NYV4). As to the kind of experiment: Measurement of CDK12 inhibitory activity by binding assay (TR-FRET, 66 nM BODIPY-FL-labeled AT-7519). The following applies: inhibitory rate against CDK12 at 1 μM test compound, 66 nM BODIPY-FL-labeled AT-7519, 2 nM CDK12/CycK. In outline: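 His-tagged CDK12/CycK (2 nM) premixed with 66 nM BODIPY-FL-AT-7519 tracer, 0.2 nM Tb-streptavidin and 0.4 nM biotin-anti-His, then incubated with compound 120 min at room temperature. Tracer displacement read as BODIPY-FL/Tb TR-FRET ratio; percent inhibition normalized to no-compound control and 3 μM AT-7519 blank.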
CDK12/CycK complex, sequence (Q9NYV4 whole entry, species assumed): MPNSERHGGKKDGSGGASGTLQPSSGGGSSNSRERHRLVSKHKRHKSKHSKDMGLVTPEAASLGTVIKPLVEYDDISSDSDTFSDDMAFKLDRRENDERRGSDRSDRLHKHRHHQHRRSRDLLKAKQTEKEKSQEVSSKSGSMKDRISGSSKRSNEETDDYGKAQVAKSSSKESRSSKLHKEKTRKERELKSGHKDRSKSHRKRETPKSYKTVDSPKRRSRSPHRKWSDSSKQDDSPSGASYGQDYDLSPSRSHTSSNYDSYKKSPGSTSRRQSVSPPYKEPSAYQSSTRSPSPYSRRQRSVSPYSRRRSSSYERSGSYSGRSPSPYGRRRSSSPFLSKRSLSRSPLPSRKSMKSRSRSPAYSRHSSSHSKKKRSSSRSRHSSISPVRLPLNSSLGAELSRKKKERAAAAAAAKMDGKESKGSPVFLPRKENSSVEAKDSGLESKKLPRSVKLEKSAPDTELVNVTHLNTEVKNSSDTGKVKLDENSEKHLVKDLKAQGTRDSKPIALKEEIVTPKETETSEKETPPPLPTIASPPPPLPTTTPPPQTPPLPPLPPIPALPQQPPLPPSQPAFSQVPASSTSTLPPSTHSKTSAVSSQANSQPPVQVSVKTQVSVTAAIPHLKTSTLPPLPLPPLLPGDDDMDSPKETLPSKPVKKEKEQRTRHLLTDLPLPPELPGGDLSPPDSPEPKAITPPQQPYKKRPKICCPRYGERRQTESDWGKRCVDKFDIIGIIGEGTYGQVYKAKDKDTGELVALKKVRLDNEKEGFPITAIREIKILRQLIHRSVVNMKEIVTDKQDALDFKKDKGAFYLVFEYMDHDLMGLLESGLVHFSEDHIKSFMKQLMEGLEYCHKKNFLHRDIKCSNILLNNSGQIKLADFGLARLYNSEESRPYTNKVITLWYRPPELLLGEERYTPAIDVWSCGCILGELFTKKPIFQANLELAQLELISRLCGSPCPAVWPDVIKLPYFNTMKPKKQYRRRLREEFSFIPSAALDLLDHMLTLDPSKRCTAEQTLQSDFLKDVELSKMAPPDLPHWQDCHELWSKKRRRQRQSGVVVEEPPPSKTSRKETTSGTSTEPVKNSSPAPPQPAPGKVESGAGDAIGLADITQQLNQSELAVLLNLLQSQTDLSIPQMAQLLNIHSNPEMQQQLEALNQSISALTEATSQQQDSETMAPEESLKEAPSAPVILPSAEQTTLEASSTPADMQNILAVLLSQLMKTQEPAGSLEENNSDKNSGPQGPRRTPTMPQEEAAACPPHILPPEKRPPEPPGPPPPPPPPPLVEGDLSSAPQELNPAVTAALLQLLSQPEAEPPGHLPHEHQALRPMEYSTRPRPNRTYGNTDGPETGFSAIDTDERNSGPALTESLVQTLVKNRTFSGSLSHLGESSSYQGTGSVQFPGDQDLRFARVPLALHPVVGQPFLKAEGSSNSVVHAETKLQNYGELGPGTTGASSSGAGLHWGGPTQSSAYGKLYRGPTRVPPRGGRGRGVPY
CDK12/CycK complex, sequence (O75909 whole entry partner, species assumed): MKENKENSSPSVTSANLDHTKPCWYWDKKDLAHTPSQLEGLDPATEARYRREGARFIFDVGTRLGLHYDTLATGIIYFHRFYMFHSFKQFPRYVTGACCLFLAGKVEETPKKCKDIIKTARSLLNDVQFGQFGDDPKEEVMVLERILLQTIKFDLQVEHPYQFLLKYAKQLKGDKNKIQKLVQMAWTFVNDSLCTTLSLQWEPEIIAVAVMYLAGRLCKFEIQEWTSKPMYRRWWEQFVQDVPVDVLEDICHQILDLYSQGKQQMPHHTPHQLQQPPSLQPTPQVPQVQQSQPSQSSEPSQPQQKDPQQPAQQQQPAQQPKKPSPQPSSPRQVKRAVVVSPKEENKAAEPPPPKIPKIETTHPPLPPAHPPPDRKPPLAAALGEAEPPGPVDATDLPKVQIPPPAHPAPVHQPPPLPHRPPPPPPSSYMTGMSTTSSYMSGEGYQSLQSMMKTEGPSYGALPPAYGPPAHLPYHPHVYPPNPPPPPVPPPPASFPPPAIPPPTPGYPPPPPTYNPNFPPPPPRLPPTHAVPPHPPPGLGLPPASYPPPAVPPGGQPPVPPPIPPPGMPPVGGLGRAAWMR

CDK12/CycK enzyme, sequence (Q9NYV4 whole entry, species assumed): as the sequence (Q9NYV4 whole entry, species assumed) above
CDK12/CycK enzyme, sequence (O75909 whole entry partner, species assumed): as the sequence (O75909 whole entry partner, species assumed) above

A word on the inhibition: it is the relative decrease from the control value, in per cent. As for `COc1ncc(-c2ccc(N(C(=O)NCc3ccccc3)[C@H]3CC[C@H](Nc4ncc(C#N)c(NC5COC5)n4)CC3)nc2)cn1` [Example 553, 3-benzyl-1-(trans-4-((5-cyano-4-(oxetan-3-ylamino)pyrimidin-2-yl)amino)cyclohexyl)-1-(5-(2-methoxypyrimidin-5-yl)pyridin-2-yl)urea], the inhibition at 1 µM in the assay on A2780 cells amounted to 98%; against CDK12/CycK enzyme, 106%; in assay [1] it was 74%; at CDK12/CycK complex it was 100%.

With `Cn1cc(-c2ccc(N(C(=O)NCc3ccccc3)[C@H]3CC[C@H](Nc4ncc(C(F)(F)F)c(N5CCC6(COC6)C5)n4)CC3)nc2)cn1` [Example 566, 3-benzyl-1-(5-(1-methyl-1H-pyrazol-4-yl)pyridin-2-yl)-1-(trans-4-((4-(2-oxa-6-azaspiro[3.4]octa-6-yl)-5-(trifluoromethyl)pyrimidin-2-yl)amino)cyclohexyl)urea], the inhibition at 1 µM with A2780 cells was found to be 98%; on CDK12/CycK enzyme, 100%; in assay [1] it was 72%; at CDK12/CycK complex, 102%.

As to `Cn1cc(-c2ccc(N(C(=O)NCc3ccccc3)[C@H]3CC[C@H](Nc4ncc(C(F)(F)F)c(NC5COC5)n4)CC3)nc2)cn1` [Example 574, 3-benzyl-1-(5-(1-methyl-1H-pyrazol-4-yl)pyridin-2-yl)-1-(trans-4-((4-(oxetan-3-ylamino)-5-(trifluoromethyl)pyrimidin-2-yl)amino)cyclohexyl)urea], the inhibition at 1 µM in the assay on A2780 cells stood at 97%; at CDK12/CycK enzyme, 99%; in assay [1] it was 83%; on CDK12/CycK complex it was 103%.

For `Cn1cc(-c2cnc(N(C(=O)NCc3ccccc3)[C@H]3CC[C@H](Nc4ncc(C#N)c(NC5COC5)n4)CC3)nc2)cn1` [Example 575, 3-benzyl-1-(trans-4-((5-cyano-4-(oxetan-3-ylamino)pyrimidin-2-yl)amino)cyclohexyl)-1-(5-(1-methyl-1H-pyrazol-4-yl)pyrimidin-2-yl)urea], the inhibition at 1 µM in the assay on A2780 cells worked out at 99%; against CDK12/CycK enzyme, 97%; in assay [1], 63%; at CDK12/CycK complex, 101%.

In the case of `COc1ncc(-c2ccc(N(C(=O)NCc3ccccc3)[C@H]3CC[C@H](Nc4ncc(C#N)c(-c5cn[nH]c5C)n4)CC3)nc2)cn1` [Example 577, 3-benzyl-1-(trans-4-((5-cyano-4-(5-methyl-1H-pyrazol-4-yl)pyrimidin-2-yl)amino)cyclohexyl)-1-(5-(2-methoxypyrimidin-5-yl)pyridin-2-yl)urea], the inhibition at 1 µM with A2780 cells is 94%; against CDK12/CycK enzyme, 98%; in assay [1], 87%; at CDK12/CycK complex, 88%.

Consider `COc1ncc(-c2ccc(N(C(=O)OCc3ccccc3)[C@H]3CC[C@H](Nc4ncc(C#N)c(NC5COC5)n4)CC3)nc2)cn1` [Example 581, benzyl (trans-4-((5-cyano-4-(oxetan-3-ylamino)pyrimidin-2-yl)amino)cyclohexyl) (5-(2-methoxypyrimidin-5-yl)pyridin-2-yl)carbamate], for which the inhibition at 1 µM in the assay on A2780 cells worked out at 99%; on CDK12/CycK enzyme, 102%; in assay [1], 70%; at CDK12/CycK complex, 88%.

Turning to `COc1ncc(-c2ccc(N(C(=O)NCc3ccccc3F)[C@H]3CC[C@H](Nc4ncc(C#N)c(NC5COC5)n4)CC3)nc2)cn1` [Example 582, 1-(trans-4-((5-cyano-4-(oxetan-3-ylamino)pyrimidin-2-yl)amino)cyclohexyl)-3-(2-fluorobenzyl)-1-(5-(2-methoxypyrimidin-5-yl)pyridin-2-yl)urea], the inhibition at 1 µM was 97% in the assay with A2780 cells, 110% against CDK12/CycK enzyme, 72% in assay [1] and 91% at CDK12/CycK complex.

As for `COc1ncc(-c2ccc(N(C(=O)NCc3ccccc3)[C@H]3CC[C@H](Nc4ncc(C(F)(F)F)c(OC5COC5)n4)CC3)nc2)cn1` [Example 588, 3-benzyl-1-(5-(2-methoxypyrimidin-5-yl)pyridin-2-yl)-1-(trans-4-((4-(oxetan-3-yloxy)-5-(trifluoromethyl)pyrimidin-2-yl)amino)cyclohexyl)urea], the inhibition at 1 µM in the assay on A2780 cells was 98%; on CDK12/CycK enzyme, 100%; in assay [1], 75%; at CDK12/CycK complex, 99%.

Consider `COc1ncc(-c2ccc(N(C(=O)NCc3ccccc3)[C@H]3CC[C@H](Nc4ncc(C(F)(F)F)c(NC5COC5)n4)CC3)nc2)cn1` [Example 589, 3-benzyl-1-(5-(2-methoxypyrimidin-5-yl)pyridin-2-yl)-1-(trans-4-((4-(oxetan-3-ylamino)-5-(trifluoromethyl)pyrimidin-2-yl)amino)cyclohexyl) urea], for which the inhibition at 1 µM stood at 97% in the assay on A2780 cells, 115% at CDK12/CycK enzyme, 78% in assay [1] and 100% on CDK12/CycK complex.

With `COc1ncc(-c2cnc(N(C(=O)NCc3ccccc3)[C@H]3CC[C@H](Nc4ncc(C#N)c(N5CCCC(O)CC5)n4)CC3)nc2)cn1` (stereo partly drawn) [Example 596, 3-benzyl-1-(trans-4-((5-cyano-4-(4-hydroxyazepan-1-yl)pyrimidin-2-yl)amino)cyclohexyl)-1-(2′-methoxy-5,5′-bipyrimidin-2-yl)urea], the inhibition at 1 µM in the assay with A2780 cells was determined as 99%; against CDK12/CycK enzyme, 100%; in assay [1] it was 71%; on CDK12/CycK complex it was 103%.

For the compound `COc1ncc(-c2ccc(N(C(=O)OCc3ccccc3)[C@H]3CC[C@H](Nc4ncc(C(F)(F)F)c(N5CC(F)(CO)C5)n4)CC3)nc2)cn1` [Example 600, benzyl (trans-4-((4-(3-fluoro-3-(hydroxymethyl)azetidin-1-yl)-5-(trifluoromethyl)pyrimidin-2-yl)amino)cyclohexyl) (5-(2-methoxypyrimidin-5-yl)pyridin-2-yl)carbamate], the inhibition at 1 µM was found to be 93% in the assay with A2780 cells, 108% at CDK12/CycK enzyme, 81% in assay [1] and 83% on CDK12/CycK complex.

`COc1ncc(-c2ccc(N(C(=O)OCc3ccccc3)[C@H]3CC[C@H](Nc4ncc(C#N)c(N5CC(F)(CO)C5)n4)CC3)nc2)cn1` [Example 603, benzyl (trans-4-((5-cyano-4-(3-fluoro-3-(hydroxymethyl)-azetidin-1-yl)pyrimidin-2-yl)amino)cyclohexyl) (5-(2-methoxypyrimidin-5-yl)pyridin-2-yl)carbamate]: the inhibition at 1 µM came out at 93% in the assay on A2780 cells, 103% against CDK12/CycK enzyme, 81% in assay [1] and 76% at CDK12/CycK complex.

Take `Cn1cc(-c2ccc(N(C(=O)NCc3ccccc3)[C@H]3CC[C@H](Nc4ncc(C#N)c(NC5(C)COC5)n4)CC3)nc2)cn1` [Example 605, 3-benzyl-1-(trans-4-((5-cyano-4-((3-methyloxetan-3-yl)amino)-pyrimidin-2-yl)amino)cyclohexyl)-1-(5-(1-methyl-1H-pyrazol-4-yl)pyridin-2-yl)urea]: the inhibition at 1 µM was determined as 98% in the assay with A2780 cells, 100% against CDK12/CycK enzyme, 73% in assay [1] and 90% at CDK12/CycK complex.
